# Test results: paper PMC8474110 (Journal of Medicinal Chemistry, 2021)
# How the values were obtained:
# [1] = system: HREC stimulated with VEGF-A; assay: Tube formation assay (Matrigel) in HREC stimulated with VEGF-A; assay type: cell-based, human; details: 24 h; for effect on VEGF-A-stimulated tube formation in HREC: 5 μM
# Description: To further explore effects on angiogenesis, tube formation assays with HREC were evaluated. Following seeding onto basement membranelike Matrigel and stimulation for 24 h with VEGF-A (80 ng/mL), HREC organized into networks of tubular structures mimicking capillary formation in neoangiogenesis (Figure 4A).
# The tube formation assay was analyzed in vitro in BD Matrigel, following the manufacturer’s instructions (BD, Bedford). In brief, 96-well plates were coated with 50 μL of Matrigel and allowed to solidify at 37 °C for 2 h. HREC were seeded at 1.5 × 10^4 cells/well in 100 μL of medium with (±)-1, (+)-1, or (−)-1 in the presence or absence of VEGF-A (80 ng/mL), AC927, and PTZ. After […] of incubation, tubelike structures were photographed at 10× magnification using an inverted microscope (Leica DM IRB) equipped with a CCD camera. Tube formations were quantified with ImageJ software (NIH, Bethesda, MD).
# [2] = system: human 92-1 uveal melanoma cells; assay: Wound healing assay (cell migration) in human 92-1 uveal melanoma cells; assay type: cell-based; details: for effect on 92-1 cell migration: 3 μM, over 48 h time courses; for IC50: Homo sapiens, read-out: IC50, inhibition of 92-1 cell migration (wound healing)
# Description: Finally, tumor cell migration was explored with the wound healing assay (Figure 7). (±)-1, (+)-1, and (−)-1 inhibited 92-1 cell migration over 48 h time courses (Figure 7A). […] In particular, the derivative (−)-1 exerted the highest antimigratory effects compared to the (+)-enantiomer (>10-fold) or the racemic mixture (±)-1 (>40-fold; Figure 7B). These actions closely mirror those observed in HREC migration (Figure 3) and could similarly reflect signaling through σ receptors by the HP-mII molecular component of the prodrugs, without VPA/HDAC involvement. Indeed, their differential potencies in motility inhibition (Figure 7) are aligned with increasing binding affinities for σ2 receptors from (±)-1 to (+)-1 and (−)-1 (Table 2), thus implicating the stereochemical diversity of HP-mII enantiomeric components as an underlying molecular mechanism able to regulate cell migration.
# (§1) HREC and 92-1 cells (2.5 × 10^5 cells/well) were seeded into 24 well plates and grown to confluency. Confluent cell monolayers were scratched with a p200 pipet tip to create 1 mm wide wounds. After washing (three times) with PBS to remove cell debris, wounded monolayers were incubated for 48 h (37 °C) in the complete medium in the presence of the indicated treatments. HREC were treated for 48 h in the presence of (±)-1, (+)-1, or (−)-1 with or without VEGF-A (80 ng/mL), AC927, and PTZ. 92-1 cells were treated for 48 h in the presence of (±)-1, (+)-1, or (−)-1. Wound closure was monitored by photographs at 40X using a phase-contrast microscope in each culture condition and at each time point (0, 24, and 48 h for HREC and 0, 6, 24, 30, and 48 h for 92-1 cells). The numbers of cells toward the wounds were counted using ImageJ software (ImageJ 1.50e, National Institutes of Health, NIH, Bethesda, MD) and were quantified by measuring the distance traveled over time by both cell fronts into the wound area.
# [3] = system: HREC stimulated with VEGF-A; assay: Wound healing assay (cell motility) in HREC stimulated by VEGF-A; assay type: cell-based, human; details: 48 h; for effect of AC927 cotreatment on the compound's inhibition of VEGF-A-mediated HREC motility: 5 μM compound + 2 μM AC927, 80 ng/mL VEGF-A; for effect of PTZ cotreatment on the compound's inhibition of VEGF-A-mediated HREC motility: 5 μM compound + 2 μM PTZ
# Description: Unregulated stimulation of endothelial cell motility by VEGF-A underlies pathological angiogenesis.[41] Therefore, the effects of (±)-1, (+)-1, and (−)-1 on HREC motility stimulated by VEGF-A (80 ng/mL) were evaluated with the wound healing assays (Figures 3 and S3–S5). VEGF-A promoted HREC migration compared to untreated controls, inducing complete wound closures at 24 h (Figures S3–S5). […] Cotreatments with both AC927 and PTZ reduced (±)-1 and (+)-1 abilities to inhibit VEGF-A-mediated wound healing (Figure 3A,B). […] The representative images of HREC treated with VEGF-A and three prodrug derivatives after the scratch wound are shown in the Supporting Information (Figures S2–S4A).
# as §1
# [4] = Enzymatic stability (kinetics of enzymatic hydrolysis) in human plasma; assay type: in vitro ADME; details: human plasma (80%), 37 °C; for half-life at 3.8 µM: pH 7.4, read-out: t1/2, enzymatic stability (converted)
# Description: (§2) Enzymatic stability studies in rat and human plasma were performed for both the racemate and its enantiomers (Table 1). […] Considering the high stability of (±)-1 and its enantiomers in simulated physiological fluids and human plasma, these compounds could reach the target site without undergoing esterase metabolism.
# (§3) Human plasma was purchased from 3H Biomedical (Uppsala, Sweden, Europe). Plasma aliquots (4 mL) were diluted with 0.02 M PBS (pH 7.4) to obtain a final volume of 5 mL containing 80% plasma. Studies were performed at 37 ± 0.5 °C using a shaking bath. Each experiment was started by adding a 10^–4 M drug stock solution (200 μL) to the preheated plasma. Hundred microliters of the thermostated medium was taken at various times, treated with cold methanol (500 μL) to precipitate plasma proteins, and centrifugated (5 min at 5000g). The supernatant was analyzed by HPLC to quantify the amount of the residual intact compound.
# [5] = system: HREC stimulated with VEGF-A; assay: Crystal violet proliferation assay in HREC with or without VEGF-A; assay type: cell-based, human; details: 24 h; for effect of coincubation with AC927 on the compound's anti-VEGF-A activity on HREC proliferation: 5 μM compound + 2 μM AC927 (σ2 antagonist); for effect of coincubation with AC927 on the compound's anti-VEGF-A activity on HREC proliferation / effect of coincubation with PTZ on the compound's anti-VEGF-A activity on HREC proliferation / effect on VEGF-A-mediated HREC proliferation: 80 ng/mL VEGF-A; for effect of coincubation with PTZ on the compound's anti-VEGF-A activity on HREC proliferation: 5 μM compound + 2 μM PTZ (σ1 agonist); for effect on VEGF-A-mediated HREC proliferation / effect on HREC proliferation under basal conditions: 5 μM; for effect on HREC proliferation under basal conditions: no VEGF-A
# Description: As expected, VEGF-A exerted a proangiogenic effect by increasing cell proliferation by about 45% (at 24 h) with respect to the untreated control (Figure 2).
# Control cells received an equal volume of vehicle (DMSO). At the end of the treatment, each well was washed with phosphate-buffered saline (PBS). Following this, the cells were fixed (in 4% paraformaldehyde) and stained with crystal violet solution (0.5% in 20% methanol for HREC or 1% aqueous solution for 92-1 cells). Subsequently, the plate was washed with water and left to dry. Crystal violet staining was evaluated by measuring the absorbance at 570 nm or 590 nm, after crystal violet extraction with 10% acetic acid (at room temperature for 10 min), with a microplate reader with the plate reader (Synergy 2-BioTek). For quantification, each assay was carried out in triplicate.
# [6] = Enzymatic stability (kinetics of enzymatic hydrolysis) in rat plasma; assay type: in vitro ADME; details: for half-life at 3.8 µM: plasma (80%), pH 7.4, read-out: t1/2, enzymatic stability (converted)
# Description: as §2, §3
SMILES,effect on VEGF-A-stimulated tube formation in HREC ([1]; 80 ng/mL VEGF-A),effect on 92-1 cell migration [2],IC50 ([2]; 48 h),effect of AC927 cotreatment on the compound's inhibition of VEGF-A-mediated HREC motility [3],effect of PTZ cotreatment on the compound's inhibition of VEGF-A-mediated HREC motility ([3]; 80 ng/mL VEGF-A),"Kobs, enzymatic stability [4]",half-life at 3.8 µM [4],effect of coincubation with AC927 on the compound's anti-VEGF-A activity on HREC proliferation [5],effect of coincubation with PTZ on the compound's anti-VEGF-A activity on HREC proliferation [5],effect on VEGF-A-mediated HREC proliferation [5],effect on HREC proliferation under basal conditions [5],"Kobs, enzymatic stability [6]",half-life at 3.8 µM [6],"antimigratory effect compared to the (+)-enantiomer ([2]; 92-1 cells, 48 h)","antimigratory effect compared to the racemic mixture (±)-1 ([2]; 92-1 cells, 48 h)","effect on VEGF-A-mediated HREC migration (wound healing) ([3]; 5 μM, 80 ng/mL VEGF-A)","effect of AC927 on the compound's action on VEGF-A-stimulated tube formation ([1]; 5 μM compound + 2 μM AC927, 80 ng/mL VEGF-A)","effect of PTZ on the compound's action on VEGF-A-stimulated tube formation ([1]; 5 μM compound + 2 μM PTZ, 80 ng/mL VEGF-A)"
CCCC(CCC)C(=O)O[C@H](CCCN1CCC(O)(c2ccc(Cl)cc2)CC1)c1ccc(F)cc1 [(+)-1],blocked,inhibited,1150 nM,reduced,significantly and completely blocked,0.012 ± 0.001 h^–1,58.2 ± 1.2 h,did not alter,did not alter,completely prevented,did not induce significant changes,1.60 ± 0.005 h^–1,0.434 ± 0.002 h,–,–,–,–,–
CCCC(CCC)C(=O)O[C@@H](CCCN1CCC(O)(c2ccc(Cl)cc2)CC1)c1ccc(F)cc1 [(−)-1],blocked,inhibited,90 nM,"prevented, in part",–,0.01 ± 0.002 h^–1,70.3 ± 1.5 h,did not alter,did not alter,completely prevented,did not induce significant changes,2.15 ± 0.03 h^–1,0.322 ± 0.01 h,> 10 fold,> 40 fold,highest reduction,–,–
CCCC(CCC)C(=O)OC(CCCN1CCC(O)(c2ccc(Cl)cc2)CC1)c1ccc(F)cc1 (racemic) [(±)-1],blocked,inhibited,4220 nM,"significantly, but partially, opposed","significantly, but partially, opposed",0.011 ± 0.006 h^–1,60.5 ± 0.6 h,–,partially counteracted,completely prevented,did not induce significant changes,2.96 ± 0.01 h^–1,0.234 ± 0.003 h,–,–,–,partially and equally blocked,partially and equally blocked
